Experiments:
[1] = target: Auxenochlorella protothecoides ApPPO1 (SEQ ID NO: 1) variant R140A, fused to MBP (Auxenochlorella protothecoides, UniProt A0A087SQM0, R140A); experiment: PPO enzyme inhibition assay (IC50), MBP-fused PPO; assay type: biochemical
Method: (§1) Thus, PPO proteins of wild type and variants were expressed as fused to MBP and were used for experiments.
(§2) The following process for purification of PPO protein was performed in a 4° C. cold room. […] The column was washed with 3 column volumes of buffer and the presence of protein in the washing solution was examined. When the protein was no longer detected, the washing procedure was terminated. Then, the MBP-PPO protein was eluted with approximately 2 column volumes of buffer containing 20 mM maltose. The protein concentration of each eluent was determined and the elution was stopped when the protein was no longer detected. Ten microliter of each fraction was investigated for protein quantification and SDS-PAGE analysis. […]
(§3) Hundred and eighty microliters of a reaction mixture containing the purified PPO protein were placed in 96 well plates and 20 μl of purified PPO proteins were added. […] The reaction proceeded at room temperature for 30 min and the fluorescence of protoporphyrin IX was measured using Microplate reader (Sense, Hidex) (excitation: 405 nm; emission: 633 nm). […] To this, 2.7 N HCl was added, and the absorbance at 408 nm was measured. A standard curve was generated using standard protoporphyrin IX, and PPO activity was measured by calibration of protoporphyrin IX using the standard curve of protoporphyrin IX.

[2] = target: Auxenochlorella protothecoides ApPPO1 (SEQ ID NO: 1) variant V213C, fused to MBP (Auxenochlorella protothecoides, UniProt A0A087SQM0, V213C); experiment: biochemical
Method: as §1, §2, §3

[3] = target: Auxenochlorella protothecoides ApPPO1 (SEQ ID NO: 1) variant F386V, fused to MBP (Auxenochlorella protothecoides, UniProt A0A087SQM0, F386V); experiment: PPO enzyme inhibition assay (IC50), MBP-fused PPO; assay type: biochemical
Sequence of Auxenochlorella protothecoides ApPPO1 (SEQ ID NO: 1) variant F386V, fused to MBP (A0A087SQM0 entry or part of it F386V): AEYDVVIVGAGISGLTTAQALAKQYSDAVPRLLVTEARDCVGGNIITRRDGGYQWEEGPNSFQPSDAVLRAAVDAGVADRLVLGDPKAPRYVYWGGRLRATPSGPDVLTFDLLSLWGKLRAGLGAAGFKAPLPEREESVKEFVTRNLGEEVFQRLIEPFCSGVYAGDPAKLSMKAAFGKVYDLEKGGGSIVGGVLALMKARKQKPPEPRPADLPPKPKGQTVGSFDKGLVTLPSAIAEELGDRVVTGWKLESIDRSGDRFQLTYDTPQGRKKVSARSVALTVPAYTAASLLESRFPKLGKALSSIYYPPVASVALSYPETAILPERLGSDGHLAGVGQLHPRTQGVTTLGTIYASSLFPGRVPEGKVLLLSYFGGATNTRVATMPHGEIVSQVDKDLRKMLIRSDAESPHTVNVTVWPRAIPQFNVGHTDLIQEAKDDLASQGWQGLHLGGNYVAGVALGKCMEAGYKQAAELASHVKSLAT

[4] = target: T1, Myxococcus xanthus MxPPO (SEQ ID NO: 3) variant R95A, fused to MBP (Myxococcus xanthus, UniProt P56601, R95A); experiment: biochemical
T1 construct: For encoding the PPO protein (MxPPO); made in house; host or cells: BL21 CodonPlus(DE3) E. coli
T1 sequence (P56601 whole entry R95A, the tested form may be a part): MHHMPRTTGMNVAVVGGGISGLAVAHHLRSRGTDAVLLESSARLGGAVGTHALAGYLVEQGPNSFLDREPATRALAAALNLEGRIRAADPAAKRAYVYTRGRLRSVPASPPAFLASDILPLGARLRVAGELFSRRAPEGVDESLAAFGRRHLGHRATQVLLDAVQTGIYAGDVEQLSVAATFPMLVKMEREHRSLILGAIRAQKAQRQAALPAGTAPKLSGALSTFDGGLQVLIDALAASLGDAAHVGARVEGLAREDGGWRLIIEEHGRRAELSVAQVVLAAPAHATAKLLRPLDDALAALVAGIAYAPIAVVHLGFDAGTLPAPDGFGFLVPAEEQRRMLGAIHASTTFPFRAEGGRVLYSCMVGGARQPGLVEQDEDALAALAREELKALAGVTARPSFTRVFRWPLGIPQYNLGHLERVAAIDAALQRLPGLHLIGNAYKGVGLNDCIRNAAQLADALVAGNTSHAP

[5] = target: T2, Myxococcus xanthus MxPPO (SEQ ID NO: 3) variant A170C, fused to MBP (Myxococcus xanthus, UniProt P56601, A170C); experiment: PPO enzyme inhibition assay (IC50), MBP-fused PPO (Table 15); assay type: biochemical
T2 construct: made in house; host or cells: BL21 CodonPlus(DE3) E. coli
T2 sequence (P56601 whole entry A170C, the tested form may be a part): as the sequence (P56601 whole entry R95A, the tested form may be a part) above, with A95R, A170C counted along it
Method: as §1
(§4) In order to express wild type and variant proteins of ApPPO1 and MxPPO, those genes were introduced into pMAL-c2x vector (refer to FIG. 25), respectively.
as §2
(§5) Hundred and eighty microliters of a reaction mixture containing the purified PPO protein were placed in 96 well plates and 20 μl of purified PPO proteins were added. […] The reaction proceeded at room temperature for 30 min and the fluorescence of protoporphyrin IX was measured using Microplate reader (Sense, Hidex) (excitation: 405 nm; emission: 633 nm). […] To this, 2.7 N HCl was added, and the absorbance at 408 nm was measured. […]

[6] = target: T3, Myxococcus xanthus MxPPO (SEQ ID NO: 3) variant A170L, fused to MBP (Myxococcus xanthus, UniProt P56601, A170L); experiment: biochemical
T3 construct: made in house; host or cells: BL21 CodonPlus(DE3) E. coli
T3 sequence (P56601 whole entry A170L, the tested form may be a part): as the sequence (P56601 whole entry R95A, the tested form may be a part) above, with A95R, A170L counted along it
Method: as §1, §4, §2, §5

[7] = target: T4, Myxococcus xanthus MxPPO (SEQ ID NO: 3) variant I311M, fused to MBP (Myxococcus xanthus, UniProt P56601, I311M); experiment: biochemical
T4 construct: made in house; host or cells: BL21 CodonPlus(DE3) E. coli
T4 sequence (P56601 whole entry I311M, the tested form may be a part): as the sequence (P56601 whole entry R95A, the tested form may be a part) above, with A95R, I311M counted along it
Method: as §1, §4, §2, §5

[8] = target: T5, Myxococcus xanthus MxPPO (SEQ ID NO: 3) variant F329V, fused to MBP (Myxococcus xanthus, UniProt P56601, F329V); experiment: PPO enzyme inhibition assay (IC50), MBP-fused PPO (Table 15); assay type: biochemical
T5 construct: For encoding the PPO protein (MxPPO); made in house; host or cells: BL21 CodonPlus(DE3) E. coli
T5 sequence (P56601 whole entry F329V, the tested form may be a part): as the sequence (P56601 whole entry R95A, the tested form may be a part) above, with A95R, F329V counted along it
Method: as §1, §4, §2, §5

[9] = target: T6, Myxococcus xanthus MxPPO (SEQ ID NO: 3) variant L332T, fused to MBP (Myxococcus xanthus, UniProt P56601, L332T); experiment: as above; assay type: biochemical
T6 construct: made in house; host or cells: BL21 CodonPlus(DE3) E. coli
T6 sequence (P56601 whole entry L332T, the tested form may be a part): as the sequence (P56601 whole entry R95A, the tested form may be a part) above, with A95R, L332T counted along it
Method: as §1, §4, §2, §5

[10] = test system: E. coli BT3(ΔPPO) transformed with Auxenochlorella protothecoides ApPPO1 (SEQ ID NO: 1) variant A215L (AL); experiment: Herbicide tolerance test in PPO-deficient E. coli BT3(ΔPPO), growth on plates; assay type: cell-based; conditions: Table 7, light, 37° C., 16 to 20 hours, vs wild type at highest herbicide concentration
Method: (§6) The mutated CyPPO gene obtained from the Example 2 was transformed to BT3 (ΔPPO) strain which is deficient of PPO activity and cultured in LB media with PPO-inhibiting herbicide, thereby examining whether growth of transformed BT3 was not inhibited.
(§7) BT3 competent cells were transformed with the pET303-ApPPO1 and pET303-MxPPO plasmids and those with a mutation(s) constructed in Example 2 respectively, and were cultured in LB agar media containing carbenicillin (Gold Biotechnology, Co., Ltd.).
(§8) Single colony of E. coli transformed with each CyPPO gene was cultured in 3 ml of LB broth containing carbenicillin overnight, and then was subcultured until absorbance (OD600) reached 0.5 to 1. Then, it was diluted with LB broth to OD600=0.5. Again, the diluted solution was serially diluted 4 times by a factor of one tenth.
(§9) The LB agar media (LB 25 g/l, Bacto agar 15 g/l) containing carbenicillin (100 μg/ml) and 0 to 4,000 μM of various herbicides dissolved in DMSO was prepared. Next, 10 μl of each diluted solution was dropped on the plate and cultured at 37° C. under light (Tables 7, 9 and 10, FIGS. 2 to 6, 13 to 20) or dark (Tables 8 and 11, FIGS. 7 to 12, 21 to 24) for 16 to 20 hours. Then, the extent of tolerance was evaluated.
(§10) The extent of herbicide tolerance of the ApPPO1 or MxPPO mutated genes was evaluated by comparing that of mutated genes with that of ApPPO1 or MxPPO wild type. The relative tolerance was represented with “+” as a factor of 10 times.
(§11) In Tables 7 to 11, tolerance level was presented as ‘−’ of tolerance of wild type and of variants equivalent to that of wild type, and was done as ‘+’ per each 10 fold resistance until ‘+++++’ as maximal resistance. […] A dilution series (OD600=0.5, 0.05, 0.005, 0.0005, 0.00005) was made and spotted on LB agar plates supplemented with herbicides.

[11] = test system: E. coli BT3(ΔPPO) transformed with Auxenochlorella protothecoides ApPPO1 (SEQ ID NO: 1) variant V360M (VM); experiment: as above; assay type: cell-based; conditions: Table 7, light, 37° C., 16 to 20 hours, vs wild type at highest herbicide concentration
Method: as §6, §7, §8, §9, §10, §11

[12] = test system: E. coli BT3(ΔPPO) transformed with Auxenochlorella protothecoides ApPPO1 (SEQ ID NO: 1) variant Y422C (YC); experiment: as above; assay type: cell-based; conditions: Table 7, light, 37° C., 16 to 20 hours, vs wild type at highest herbicide concentration
Method: as §6, §7, §8, §9, §10, §11

[13] = test system: E. coli BT3(ΔPPO) transformed with Auxenochlorella protothecoides ApPPO1 (SEQ ID NO: 1) variant Y422M (YM); experiment: as above; assay type: cell-based; conditions: Table 7, light, 37° C., 16 to 20 hours, vs wild type at highest herbicide concentration
Method: as §6, §7, §8, §9, §10, §11

[14] = test system: E. coli BT3(ΔPPO) transformed with Auxenochlorella protothecoides ApPPO1 (SEQ ID NO: 1) variant Y422I (YI); assay type: cell-based; conditions: Table 7, light, 37° C., 16 to 20 hours, vs wild type at highest herbicide concentration
Method: as §6, §7, §8, §9, §10, §11

[15] = test system: E. coli BT3(ΔPPO) transformed with Auxenochlorella protothecoides ApPPO1 (SEQ ID NO: 1) variant Y422L (YL); experiment: Herbicide tolerance test in PPO-deficient E. coli BT3(ΔPPO), growth on plates; assay type: cell-based; conditions: Table 7, light, 37° C., 16 to 20 hours, vs wild type at highest herbicide concentration
Method: as §6, §7, §8, §9, §10, §11

[16] = test system: E. coli BT3(ΔPPO) transformed with Myxococcus xanthus MxPPO (SEQ ID NO: 3) variant I311M; experiment: as above; assay type: cell-based; conditions: Table 9, light, tiafenacil to 2000 μM, saflufenacil to 200 μM, flumioxazin to 100 μM
Method: as §6, §7, §8, §9
The extent of herbicide tolerance of the ApPPO1 or MxPPO mutated genes was evaluated by comparing that of mutated genes with that of ApPPO1 or MxPPO wild type. […]

[17] = test system: transgenic A. thaliana transformed with ApPPO1 variants, MxPPO or MxPPO variants; experiment: Herbicide spray test on 4-week-old plants, transgenic; assay type: in vivo, Arabidopsis thaliana; conditions: 100 ml of 1 μM tiafenacil and 0.05% Silwet L-77 per 0.24 m^2
Excerpt: A. thaliana was transformed with a binary vector having ORF of a selectable marker, Bar gene (glufosinate-tolerant gene), and ORF of each gene of ApPPO1 variants, MxPPO, and MxPPO variants. The transgenic plant was examined for cross-tolerance towards glufosinate and PPO-inhibiting herbicides. The bar gene was also used to examine whether the transgene was stably inherited during generations. NOS promoter and E9 terminator were used for bar gene expression.
In order to express proteins of ApPPO1 variants, MxPPO, and MxPPO variants in plants, a CaMV35S promoter and a NOS terminator were used. Encoding genes of ApPPO1 variants, MxPPO, and MxPPO variants were introduced into binary vector using XhoI and BamHI restriction enzymes. Furthermore, for confirmation of the protein expression, hemagglutinin (HA) tag was fused to the C-terminal region of PPO protein coding gene using BamHI and SacI restriction enzymes. […]
Each transformed Agrobacterium was screened in spectinomycin-containing LB media. […] After Agrobacterium cell was harvested from the culture media, it was resuspended in the solution containing 5% sucrose (w/v) and 0.05% Silwet L-77 (v/v) (Momentive Performance Materials Co., Ltd.) at an absorbance (OD600) of 0.8. […]

Sequence of Auxenochlorella protothecoides ApPPO1 (SEQ ID NO: 1) variant R140A, fused to MBP (A0A087SQM0 entry or part of it R140A): as the sequence (A0A087SQM0 entry or part of it F386V) above, with R90A, V336F counted along it
Sequence of Auxenochlorella protothecoides ApPPO1 (SEQ ID NO: 1) variant V213C, fused to MBP (A0A087SQM0 entry or part of it V213C): as the sequence (A0A087SQM0 entry or part of it F386V) above, with V163C, V336F counted along it

Molecule COC(=O)CCNC(=O)C(C)Sc1cc(-n2c(=O)cc(C(F)(F)F)n(C)c2=O)c(F)cc1Cl (centres unmarked) [tiafenacil] has an IC50 [1] of 86 nM, an IC50 [2] of 81 nM and an IC50 [3] of 368 nM. The IC50 [4] was 2370 nM, the IC50 [5] was 1680 nM and the IC50 [6] was greater than 5000 nM. The IC50 [7] was 964 nM, the IC50 [8] was 239 nM and the IC50 [9] was 1010 nM. For the same molecule, the “relative herbicide tolerance level” value [10] was “++ (10-99 fold higher tolerance)”, the “relative herbicide tolerance level” value [11] was “++ (10-99 fold higher tolerance)” and the “relative herbicide tolerance level” value [12] was “++ (10-99 fold higher tolerance)”. For the same molecule, the “relative herbicide tolerance level” value [13] was “+++ (100-999 fold higher tolerance)”, the “relative herbicide tolerance level” value [14] was “++ (10-99 fold higher tolerance)” and the “relative herbicide tolerance level” value [15] was “++ (10-99 fold higher tolerance)”. The “relative herbicide tolerance level” value [16] was “++ (10-99 fold higher tolerance)” and the “plant damage after spraying” value [17] was “no damage”.
